Data set [1] in a line: Solubility (characteristics of the metabolite). The data set is classed as physicochemical. The text has this:
Formula I', which is formula I in which R₄ and R₅ are methoxy, R₆ is OH, -a-b- is cis- -CH=CH-, c is C=O, -d-e- is -CHOH-CHOH-, -f-g- is trans- -CH=CH- and the asymmetric carbon atoms marked * all have the S-configuration [drawing 2] is the structure which has been assigned to the novel metabolite designated 87-250904-F1 and having the following characteristics: White needles (from methanol/water 1:1), m.p. […] HPLC : Column : LiChrospher 100 RP-8 (5µm) (LiChroCART 125-4, Merck) Mobile phase: acetonitrile/water/orthophosphoric acid 350:650:0.175 (by vol.) Flow rate: 1.0 ml/min Detection: UV 210 nm Retention time: 3.8 min.

The test system of another data set is THP-1 cells. In words: Cytokine release from THP-1 cells (γ-interferon/LPS stimulated; ELISA, RIA, LDH, DNA). The data set is classed as cell-based. The conditions noted are these: Homo sapiens, γ-interferon, LPS, 40 hours, read-out: IC₅₀ value in the THP-1 test (concentration of compound which inhibits to 50 % the release of IL-1β). Here is the method: 1. Cytokine Release from THP-1 Cells
The THP-1 cell line is generally available and is described by Tsuchiya et al, Int. J. Cancer 26 171-176 (1980). 900 µl THP-1 cells (0.5 x 10⁶ cells) together with 100 U γ-interferon/0.9 ml RPMI 1640 medium (containing 2 mM L-glutamine and 5 % heat-inactivated foetal calf serum) are pipetted into 24 well culture plates. 100 µl of the compound to be tested are then added. After 3 hours at 37°C in 5 % CO2/95 % air, 10 µl lipopolysaccharide 500 µg/ml is added and the incubation continued for a further 40 hours. Appropriate controls (with and without stimulus, solvent) are also included. The media are then removed and clarified by centrifugation at 1000 g for 10 min. 1.0 ml digitonin 0.01 % is added to the wells to lyse the cells which are loosened by scraping with a rubber policeman and left at 4°C for 10 min. […] IL-1β, IL-6 and TNF-α assays are determined using commercially available ELISA kits (Cistron), PGE2 is measured using a standard RIA and DNA fluorimetrically using DAPI (4',6-diamidino-2-phenylindole.2HCl) […]
For the above uses the required dosage will of course vary depending on the mode of administration, the particular condition to be treated and the effect desired. […] It has been determined that the compound of Formula I' has an IC₅₀ value in the THP-1 test (concentration of compound which inhibits to 50 % the release of IL-1β) of 0.06 µM.
(In general: In an ELISA, binding on a coated surface is turned into a signal by an enzyme label.)

On to `COc1cc(O)c2c(c1OC)/C=C/C[C@H](O)[C@H](O)C(=O)/C=C\C[C@H](C)OC2=O` [Formula I', [3S-(3R*, 5Z, 8R*, 9R*, 11E)]-3,4,9,10-tetrahydro-8,9,16-trihydroxy-13,14-dimethoxy-3-methyl-1H[2] benzoxacyclotetradecin-1,7[8H] dione], for which the “Solubility in methanol, DMSO, chloroform” value in data set [1] (methanol, DMSO, chloroform) is recorded as “readily soluble”. Moreover, the Solubility in water result in data set [1] (water) is given as “Almost insoluble”.
Turning to `COc1cc(O)c2c(c1OC)/C=C/C[C@H](O)[C@H](O)C(=O)/C=C\C[C@H](C)OC2=O` [Formula I'], the IC50 in the data set on THP-1 cells came out at 0.06 µM.

The record behind these values is EP0606044A1, “Lactones compounds useful as pharmaceuticals” (SANDOZ LTD., priority 1992, dated 1994).
